Source: patent publication US9182408B2 (priority 2004, dated 2015)
Where two headings read alike, the source gives them in different places.

How the values were obtained:
ERα [1] = target: ERα (Homo sapiens, UniProt P03372)
Description: (§1) Yeast two-hybrid experiments are carried out in the yeast strain (MATa; his3-Δ200; leu2-3,112; trp1-901; [plexAop]4::HIS3; [plexAop]8::lacZ), in which expression of the two reporter genes HIS3 and LacZ is under the control of the LexA operator sequence. This yeast strain cannot grow in absence of histidine in the culture medium, and yeast growth can be rescued only if expression of HIS3 gene is induced. Similarly, the LacZ reporter gene encoding the β-galactosidase marker is not expressed in this yeast strain. The bait plasmids encoding either the full-length or a region of the target protein (Nuclear Receptor, viral proteins for example), and the random peptide/VP16-AD library were transformed into the yeast strain and yeast colonies growing in absence of histidine were selected. […] Growth of false positive clones may be prevented by adding 3-amino-triazole (3AT), a competitive inhibitor of HIS3, to the medium. […] All conformation sensitive peptides dissociated by both target protein agonists and antagonists were selected for further characterization with the aim to develop screening platforms that allow the search of both activators and inhibitors of target protein in one single assay. The biological activity of each isolated conformation sensitive peptide is reconfirmed by isolation of conformation sensitive peptide encoding plasmids, re-transformation into yeast strain and analysis of HIS3 and lacZ gene expression in absence of histidine and in presence of target protein or non-target protein ligands in a spot test, as well as in a quantitative LacZ assay. 4.1—Identification in Yeast of Conformation Sensitive Peptides Interacting with the Estrogen Receptor
The bait plasmids encoding the full length or the DEF regions of the ERα and the prey peptide/VP16-AD VV01 library (diversity of 6.10^7) were transformed into the yeast strain. Yeast colonies growing in absence of histidine were selected. […] Growth of false positive clones was prevented by adding 3-amino-triazole (3AT), a competitive inhibitor of HIS3 to the medium. […] Out of the 484 clones, 40 were randomly picked for further studies.
The biological activity of each isolated 3D-Screen peptide was reconfirmed by isolation of 3D-Screen encoding plasmids, retransformation into the yeast strain (MATa; his3-Δ200; leu2-3,112; trp1-901; [plexAop]4::HIS3; [plexAop]8::lacZ) and analysis of HIS3 and lacZ gene expression in absence of Histidine and in presence of ER or non-ER ligands in a spot test.

[2] = target: human retinoic acid receptor alpha (RARα) (Homo sapiens, UniProt P10276); details: RAR-DEF bait, 28 selected clones, medium without histidine
Description: as §1

ERα [3] = tested on: ERα
Description: FIG. 10: Generation of a 3D-screen human cell screening platform for ERα Hela cells are transiently transfected with three expression plasmids encoding the reporter gene luciferase (eg. UAS-Luc), the target protein fused to a DNA Binding Domain (DBD) and the conformation sensitive peptide previously screened in yeast and fused to the VP16-AD, respectively with the jetPEI reagent. […] This platform was used to screen a small molecule library.
Hela cells are transiently transfected with three expression plasmids encoding the reporter gene luciferase (eg. UAS-Luc), the ERα fused to a DNA Binding Domain (DBD) and the conformation sensitive peptide previously screened in yeast and fused to the VP16-AD, respectively, with the jetPEI reagent. Cells are grown in the absence of any ligand (DMSO, lane 1; ethanol, lane 2), or in the presence of ER ligands (agonists E2, DES or antagonists 4OHT, lane 3-5) or non-ER ligands (Dex and 9C-RA; lanes 8 & 9), or in the presence of Estren (lane 6) at 100 nM (right panel) and 10 μM (left panel).
Hela cells are transiently transfected with three expression plasmids encoding the reporter gene luciferase (eg. UAS-Luc), the ERα fused to a DNA Binding Domain (DBD) and the conformation sensitive peptide previously screened in yeast and fused to the VP16-AD, respectively, with the jetPEI reagent.
HeLa cells were transiently transfected with plasmid using the optimized jetPEI transfection protocol (PolyPlus Transfection, Illkirch, France). […] Chemical ligands are added to the cell culture medium 24H after transfection. Luciferase activity was measured 24H later. […] Cells are trypsinised and plated in 96 well-plates (or 384 well-plates) at 5×10^4 cells per well 24H after transfection, and small molecules are added upon cell adhesion. Luciferase activity is measured 24 H later.
The three expression plasmids, UAS-luc, full-length ER and 3D-screen/VP16AD (#30-2) were co-transfected in Hela cells in large dishes. Cells were then reseeded in a 96-well plate format 24 H after transfection and chemical compounds are added upon cell adhesion. Luciferase activity was measured 24 H later. Internal controls were also included, consisting in known ER- or non-ER ligands as previously indicated.

wild-type ERα = wild-type ERα (Homo sapiens, UniProt P03372); details: HeLa, ERE-luc, 24 H
Description: Furthermore, the potential agonist and antagonist properties of these hits were investigated in HeLa cells by co-transfection of an ERE-luc reporter plasmid, in which the luciferase gene is under the control of the estrogen-responsive elements (ERE), and an expression plasmid encoding the wild-type ERα. Transfections were performed as previously described for the primary screening, and cells are inclubated for 24 H either in the presence of the chemical hits alone to test for their agonist activity, or in the presence of the hit together with 100 nM E2 to test for their antagonist activity.

bone cells = details: cited from earlier work
[4] = target: NS5B protein of Hepatitis C virus (Hepatitis C virus genotype 1b, UniProt P26663); details: NS5BΔ21 bait, medium without Histidine; Gliotoxin 20 μM
Description: Yeast two-hybrid experiments are carried out in the yeast strain (MATa; his3-Δ200; leu2-3,112; trp1-901; [plexAop]4::HIS3; [plexAop]8::lacZ), in which expression of the two reporter genes HIS3 and LacZ is under the control of the LexA operator sequence. This yeast strain cannot grow in absence of histidine in the culture medium, and yeast growth can be rescued only if expression of HIS3 gene is induced. Similarly, the LacZ reporter gene encoding the β-galactosidase marker is not expressed in this yeast strain. The bait plasmids encoding either the full-length or a region of the target protein (Nuclear Receptor, viral proteins for example), and the random peptide/VP16-AD library were transformed into the yeast strain and yeast colonies growing in absence of histidine were selected. […] Growth of false positive clones may be prevented by adding 3-amino-triazole (3AT), a competitive inhibitor of HIS3, to the medium. […] The biological activity of each isolated conformation sensitive peptide is reconfirmed by isolation of conformation sensitive peptide encoding plasmids, re-transformation into yeast strain and analysis of HIS3 and lacZ gene expression in absence of histidine and in presence of target protein or non-target protein ligands in a spot test, as well as in a quantitative LacZ assay. […]

Sequence of human retinoic acid receptor alpha (RARα) (P10276 183-417 limits assumed): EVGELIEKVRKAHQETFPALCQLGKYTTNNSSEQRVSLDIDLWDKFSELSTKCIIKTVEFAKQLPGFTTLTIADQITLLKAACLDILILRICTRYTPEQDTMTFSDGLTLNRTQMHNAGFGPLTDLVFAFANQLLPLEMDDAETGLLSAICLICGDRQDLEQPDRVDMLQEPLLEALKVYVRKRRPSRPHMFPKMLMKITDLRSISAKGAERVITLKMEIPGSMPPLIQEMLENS
Sequence of ERα (Homo sapiens, UniProt P03372) (P03372 311-547 limits assumed): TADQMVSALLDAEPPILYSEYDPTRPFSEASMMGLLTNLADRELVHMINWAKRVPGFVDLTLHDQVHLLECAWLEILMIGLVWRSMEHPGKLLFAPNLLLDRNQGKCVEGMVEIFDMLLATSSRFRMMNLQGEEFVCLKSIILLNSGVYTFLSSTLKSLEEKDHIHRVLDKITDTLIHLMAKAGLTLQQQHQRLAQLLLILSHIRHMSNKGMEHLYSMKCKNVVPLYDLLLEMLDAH
Sequence of wild-type ERα (P03372 whole entry): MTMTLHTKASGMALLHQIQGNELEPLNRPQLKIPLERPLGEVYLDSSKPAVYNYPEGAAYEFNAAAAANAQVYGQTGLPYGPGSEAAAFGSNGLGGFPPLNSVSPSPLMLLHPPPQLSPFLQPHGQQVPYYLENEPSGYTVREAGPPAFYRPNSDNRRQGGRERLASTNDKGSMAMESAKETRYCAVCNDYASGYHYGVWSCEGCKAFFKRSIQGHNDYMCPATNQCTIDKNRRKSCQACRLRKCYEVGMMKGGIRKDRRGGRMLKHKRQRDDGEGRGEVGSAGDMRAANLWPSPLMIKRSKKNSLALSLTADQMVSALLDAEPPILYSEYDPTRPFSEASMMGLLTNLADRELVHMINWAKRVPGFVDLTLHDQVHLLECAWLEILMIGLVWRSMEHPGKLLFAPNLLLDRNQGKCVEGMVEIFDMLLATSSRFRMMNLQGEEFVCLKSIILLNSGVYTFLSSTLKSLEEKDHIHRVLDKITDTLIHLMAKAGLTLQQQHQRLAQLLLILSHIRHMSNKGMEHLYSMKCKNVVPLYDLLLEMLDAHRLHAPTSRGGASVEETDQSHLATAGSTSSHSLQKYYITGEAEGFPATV

9-cis retinoic acid
effect of added ligand on growth and LacZ expression of yeast clones (dissociation of peptide/VP16AD from ERα) (ERα [1]): no effect | effect of added ligand on growth of yeast clones (dissociation of peptide/VP16AD from RARα) [2]: suppresses the growth of 14 of these clones | luciferase expression (FIG. 11) (ERα [3]): strong | luciferase expression (FIG. 13) (ERα [3]): strong

S C C T Q H V C Y R P R A Y R [peptide 5-21]
peptide binding to ER in the presence of non-ER ligands (growth, lacZ) (ERα [1]): all clones are growing under selective conditions and stain positive for lacZ | peptide binding to ER on addition of ER ligands (growth under selective conditions) (ERα [1]): clones are not growing under selective conditions | reporter genes (His3 and LacZ) on interaction of peptide with ER in the un-liganded form (ERα [1]): clones are growing under selective conditions and stain positive for lacZ

Estren
luciferase expression (FIG. 11) (ERα [3]): preventing the expression of luciferase | agonist activity (hit alone) (wild-type ERα): do not allow the identification | antagonist activity (hit together with 100 nM E2) (wild-type ERα): do not allow the identification | apoptosis of bone cells and effect on reproductive organs (bone cells): prevent apoptosis of bone cells without affecting the reproductive organs

CC1=C(/C=C/C(C)=C/C=C/C(C)=C/C(=O)O)C(C)(C)CCC1 [all-trans-Retinoic Acid]
effect of added ligand on growth of yeast clones (dissociation of peptide/VP16AD from RARα) [2]: suppresses the growth of 14 of these clones | effect of added ligand on growth of yeast clones (dissociation of peptide/VP16AD from RARα) ([2]; listed as AT-RA): selective dissociation of the peptide/VP16AD protein induced only by the AT-RA ligand | luciferase expression (FIG. 13) (ERα [3]): strong

F C T P I R M F Y R A P L W D L N K [peptide 30-2]
peptide binding to ER in the presence of non-ER ligands (growth, lacZ) (ERα [1]): all clones are growing under selective conditions and stain positive for lacZ | peptide binding to ER on addition of ER ligands (growth under selective conditions) (ERα [1]): clones are not growing under selective conditions | reporter genes (His3 and LacZ) on interaction of peptide with ER in the un-liganded form (ERα [1]): clones are growing under selective conditions and stain positive for lacZ

C[C@]12CC[C@@H]3c4ccc(O)cc4C[C@@H](CCCCCCCCC[S+]([O-])CCCC(F)(F)C(F)(F)F)[C@H]3[C@@H]1CC[C@@H]2O (stereo partly drawn) [ICI182780]
luciferase expression (FIG. 13) (ERα [3]): preventing the expression of luciferase | luciferase expression upon addition of ligand (ERα [3]): strongly reduced

S I T T L F Y H A M F G F V P [peptide 9-23]
peptide binding to ER in the presence of non-ER ligands (growth, lacZ) (ERα [1]): all clones are growing under selective conditions and stain positive for lacZ | peptide binding to ER on addition of ER ligands (growth under selective conditions) (ERα [1]): clones are not growing under selective conditions | reporter genes (His3 and LacZ) on interaction of peptide with ER in the un-liganded form (ERα [1]): clones are growing under selective conditions and stain positive for lacZ

CN1C(=O)[C@]23CC4=CC=C[C@H](O)[C@H]4N2C(=O)[C@@]1(CO)SS3 [gliotoxin]
effect of added compound on yeast growth and HIS3/LacZ expression (dissociation of peptides from NS5B) [4]: shut-off of HIS3 and the prevention of growth of the yeast

NC(=O)c1ncn([C@@H]2O[C@H](CO)[C@@H](O)[C@H]2O)n1 [ribavirin]
effect of added compound on yeast growth and HIS3/LacZ expression (dissociation of peptides from NS5B) [4]: no effect on yeast growth
